According to patent publication US11000033B2, “Ketone or oxime compound, and herbicide” (NISSAN CHEMICAL CORPORATION, priority 2014, dated 2021):

Columns and labels:
Assay type in all cases: in vivo
[1] = test system: directly sowed rice plant; experiment: Test Example 3: effect on crop by foliage application, Wagner pot (symbol b); conditions: application herbicide amount 320 g/ha
How it was run: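 Plants are raised from seed in flooded paddy conditions: water stands 0.1–0.5 cm over alluvial soil, and the pot is kept in a greenhouse at 25–30 °C. Species sown are barnyardgrass (E. crus-galli var. crus-galli), Leptochloa chinensis, Cyperus difformis and rice.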

corn = experiment: Test Example 4: effect on crop by soil treatment (symbol c); conditions: application herbicide amount 320 g/ha
How it was run: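 Diluvial soil (sterilized) in boxes; seeds placed spot-wise alongside weed species; ~1.5 cm covering soil. Greenhouse, 25–30° C.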

Alopecurus myosuroides [2] = experiment: Test Example 4: herbicidal effect by soil treatment (symbol J); conditions: application herbicide amount 320 g/ha
How it was run: (§1)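 Seeds were sown in sterilized diluvial soil, covered with about 1.5 cm of soil, and the soil surface was sprayed with a water-diluted emulsion of the compound at a predetermined rate. Plants grew in a greenhouse at 25° C. to 30° C.; effects were scored visually 3 weeks after application.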

Lolium multiflorum Lam. [3] = experiment: Test Example 5: herbicidal effect by foliage application, plastic box (symbol K); conditions: 320 g/ha, 3 weeks after application
How it was run: (§2)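 Leaf-applied emulsion, water-diluted to a preset herbicide dose, on two-week-old seedlings raised in a 25° C. to 30° C. greenhouse; injury rated at 3 weeks using earlier criteria.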

[4] = test system: Echinochloa oryzacola Vasing.; experiment: Test Example 2: herbicidal activity, application during weed generation in submerged conditions (symbol A); conditions: Table 23; application herbicide amount 320 g/ha; grade 0-5 by criteria of Test Example 1
How it was run: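 Submerged alluvial soil (4 cm) sown with mixed seed; greenhouse 25–30° C. 1–2 leaf: diluted emulsion onto water surface, preset dose. Visual score, 3 wk.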

wheat [5] = experiment: Test Example 4: effect on crop by soil treatment (symbol e); conditions: application herbicide amount 320 g/ha
How it was run: (§3)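 Soil-treatment setup: crop and weed seeds were spot-sown into sterilized diluvial soil, then buried beneath approximately 1.5 cm of it, and the boxes were housed in a 25–30° C. greenhouse.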

rice = experiment: Test Example 4: effect on crop by soil treatment (symbol b); conditions: application herbicide amount 320 g/ha
How it was run: as §3

Alopecurus myosuroides [6] = experiment: Test Example 5: herbicidal effect by foliage application, plastic box (symbol J); conditions: 320 g/ha, 3 weeks after application
How it was run: as §2

Lolium multiflorum Lam. [7] = experiment: Test Example 4: herbicidal effect by soil treatment (symbol K); conditions: application herbicide amount 320 g/ha
How it was run: as §1

rice plant = experiment: Test Example 5: effect on crop by foliage application, plastic box (symbol b); conditions: 320 g/ha, 3 weeks after application
How it was run: (§4)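 In a plastic box 7 cm deep filled with sterilized diluvial soil, seeds of crops and weeds such as Digitaria ciliaris, Avena fatua and Amaranthus retroflexus are sown in spots and covered with about 1.5 cm of soil before greenhouse growth at 25–30° C.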

beet = experiment: Test Example 4: effect on crop by soil treatment (symbol f); conditions: application herbicide amount 320 g/ha
How it was run: as §3

wheat [8] = experiment: Test Example 5: effect on crop by foliage application, plastic box (symbol e); conditions: 320 g/ha, 3 weeks after application
How it was run: as §4

Digitaria ciliaris = experiment: Test Example 4: herbicidal effect by soil treatment (symbol F); conditions: application herbicide amount 320 g/ha
How it was run: as §1

rapeseed = experiment: Test Example 4: effect on crop by soil treatment (symbol g); conditions: application herbicide amount 320 g/ha
How it was run: as §3

Stellaria media = experiment: Test Example 4: herbicidal effect by soil treatment (symbol P); conditions: application herbicide amount 320 g/ha
How it was run: as §1

Compound	effect on crop b (directly sowed rice plant), grade 0-5 [1]	Effect on crop grade, c: corn (corn)	Herbicidal effect grade, J: Alopecurus myosuroides (Alopecurus myosuroides [2])	K: Lolium multiflorum Lam., herbicidal effect (criteria of Test Example 1) (Lolium multiflorum Lam. [3])	Herbicidal effect grade, A: Echinochloa oryzacola Vasing. [4]	Effect on crop grade, e: wheat (wheat [5])	Effect on crop grade, b: directly sowed rice plant (rice)	J: Alopecurus myosuroides, herbicidal effect (criteria of Test Example 1) (Alopecurus myosuroides [6])	Herbicidal effect grade, K: Lolium multiflorum Lam. (Lolium multiflorum Lam. [7])	b: directly sowed rice plant, effect on crop (criteria of Test Example 1) (rice plant)	Effect on crop grade, f: beet (beet)	e: wheat, effect on crop (criteria of Test Example 1) (wheat [8])	Herbicidal effect grade, F: Digitaria ciliaris (Digitaria ciliaris)	Effect on crop grade, g: rapeseed (rapeseed)	Herbicidal effect grade, P: Stellaria media (Stellaria media)	other results
CON=C(C)CC1CC(O)=C(c2c(C)cccc2C)C1=O (stereo not drawn) [6-112]	5 (Herbicidal ratio of 90% or more (almost completely withered))	1 (Herbicidal ratio of 5% or higher and lower than 20%)	5 (Herbicidal ratio of 90% or more (almost completely withered))	5 (Herbicidal ratio of 90% or more (almost completely withered))	3 (Herbicidal ratio of 40% or higher and lower than 70%)	3 (Herbicidal ratio of 40% or higher and lower than 70%)	5 (Herbicidal ratio of 90% or more (almost completely withered))	5 (Herbicidal ratio of 90% or more (almost completely withered))	5 (Herbicidal ratio of 90% or more (almost completely withered))	5 (Herbicidal ratio of 90% or more (almost completely withered))	0 (Herbicidal ratio of 5% or lower (almost no effect))	4 (Herbicidal ratio of 70% or higher and lower than 90%)	5 (Herbicidal ratio of 90% or more (almost completely withered))	0 (Herbicidal ratio of 5% or lower (almost no effect))	0 (Herbicidal ratio of 5% or lower (almost no effect))	
CON=C(C)CC1CC(OC(=O)N2CCCC2)=C(c2c(C)cc(C)cc2OC)C1=O (stereo not drawn) [6-110]	5 (Herbicidal ratio of 90% or more (almost completely withered))	0 (Herbicidal ratio of 5% or lower (almost no effect))	3 (Herbicidal ratio of 40% or higher and lower than 70%)	5 (Herbicidal ratio of 90% or more (almost completely withered))	5 (Herbicidal ratio of 90% or more (almost completely withered))	0 (Herbicidal ratio of 5% or lower (almost no effect))	0 (Herbicidal ratio of 5% or lower (almost no effect))	5 (Herbicidal ratio of 90% or more (almost completely withered))	3 (Herbicidal ratio of 40% or higher and lower than 70%)	5 (Herbicidal ratio of 90% or more (almost completely withered))	0 (Herbicidal ratio of 5% or lower (almost no effect))	4 (Herbicidal ratio of 70% or higher and lower than 90%)	0 (Herbicidal ratio of 5% or lower (almost no effect))	0 (Herbicidal ratio of 5% or lower (almost no effect))	0 (Herbicidal ratio of 5% or lower (almost no effect))	
CON=C(C)CC1CC(O)=C(c2c(C)cc(-c3ccsc3)cc2C)C1=O (stereo not drawn) [6-106]	5 (Herbicidal ratio of 90% or more (almost completely withered))	0 (Herbicidal ratio of 5% or lower (almost no effect))	3 (Herbicidal ratio of 40% or higher and lower than 70%)	5 (Herbicidal ratio of 90% or more (almost completely withered))	5 (Herbicidal ratio of 90% or more (almost completely withered))	0 (Herbicidal ratio of 5% or lower (almost no effect))	1 (Herbicidal ratio of 5% or higher and lower than 20%)	5 (Herbicidal ratio of 90% or more (almost completely withered))	3 (Herbicidal ratio of 40% or higher and lower than 70%)	3 (Herbicidal ratio of 40% or higher and lower than 70%)	0 (Herbicidal ratio of 5% or lower (almost no effect))	3 (Herbicidal ratio of 40% or higher and lower than 70%)	5 (Herbicidal ratio of 90% or more (almost completely withered))	3 (Herbicidal ratio of 40% or higher and lower than 70%)	0 (Herbicidal ratio of 5% or lower (almost no effect))	
CON=C(C)C(=NOC)C1CC(O)=C(c2c(C)cc(C)cc2C)C1=O (stereo not drawn) [8-003]		0 (Herbicidal ratio of 5% or lower (almost no effect))	0 (Herbicidal ratio of 5% or lower (almost no effect))		0 (Herbicidal ratio of 5% or lower (almost no effect))	0 (Herbicidal ratio of 5% or lower (almost no effect))	0 (Herbicidal ratio of 5% or lower (almost no effect))		0 (Herbicidal ratio of 5% or lower (almost no effect))		0 (Herbicidal ratio of 5% or lower (almost no effect))		0 (Herbicidal ratio of 5% or lower (almost no effect))	0 (Herbicidal ratio of 5% or lower (almost no effect))	0 (Herbicidal ratio of 5% or lower (almost no effect))	b (directly sowed rice plant) effect on crop grade ([1]; Table 24): 0 (Herbicidal ratio of 5% or lower (almost no effect)); K: Lolium multiflorum Lam., herbicidal effect grade (Lolium multiflorum Lam. [3]): 2 (Herbicidal ratio of 20% or higher and lower than 40%); J: Alopecurus myosuroides, herbicidal effect grade (Alopecurus myosuroides [6]): 0 (Herbicidal ratio of 5% or lower (almost no effect)); b: directly sowed rice plant, effect on crop grade (rice plant): 0 (Herbicidal ratio of 5% or lower (almost no effect)); e: wheat, effect on crop grade (wheat [8]): 0 (Herbicidal ratio of 5% or lower (almost no effect))
CON=C(C)CC1CC(OC(=O)N2CCOCC2)=C(c2c(C)cc(-c3ccc(F)cc3)cc2C)C1=O (mixture of isomers) [6-059]	5 (Herbicidal ratio of 90% or more (almost completely withered))			5 (Herbicidal ratio of 90% or more (almost completely withered))	5 (Herbicidal ratio of 90% or more (almost completely withered))			5 (Herbicidal ratio of 90% or more (almost completely withered))		5 (Herbicidal ratio of 90% or more (almost completely withered))		5 (Herbicidal ratio of 90% or more (almost completely withered))				c: corn, effect on crop grade (corn): 0 (Herbicidal ratio of 5% or lower (almost no effect)); J: Alopecurus myosuroides, herbicidal effect grade (Alopecurus myosuroides [2]): 5 (Herbicidal ratio of 90% or more (almost completely withered)); e: wheat, effect on crop grade (wheat [5]): 0 (Herbicidal ratio of 5% or lower (almost no effect)); b: directly sowed rice plant, effect on crop grade (rice): 0 (Herbicidal ratio of 5% or lower (almost no effect)); K: Lolium multiflorum Lam., herbicidal effect grade (Lolium multiflorum Lam. [7]): 1 (Herbicidal ratio of 5% or higher and lower than 20%); f: beet, effect on crop grade (beet): 0 (Herbicidal ratio of 5% or lower (almost no effect)); F: Digitaria ciliaris, herbicidal effect grade (Digitaria ciliaris): 5 (Herbicidal ratio of 90% or more (almost completely withered)); g: rapeseed, effect on crop grade (rapeseed): 0 (Herbicidal ratio of 5% or lower (almost no effect)); P: Stellaria media, herbicidal effect grade (Stellaria media): 0 (Herbicidal ratio of 5% or lower (almost no effect))
